Results reported in publication PMC6771786, “Closing the gap: yeast electron‐transferring flavoprotein links the oxidation of D‐lactate and D‐α‐hydroxyglutarate to energy production via the respiratory chain” (The Febs Journal, 2019).

Assays:
[1] = molecular target: T1, Dld2 (D-lactate dehydrogenase 2) (Saccharomyces cerevisiae, UniProt P46681); test: stopped-flow flavin reduction, hyperbolic fit; format: biochemical; conditions: anaerobic reductive half reaction; 50 mM HEPES, 150 mM NaCl pH 7, 25 °C; 450 nm; fast (first) phase of reduction
T1 construct: produced in Komagataella phaffii KM71H, purified
T1 sequence (P46681 1-530): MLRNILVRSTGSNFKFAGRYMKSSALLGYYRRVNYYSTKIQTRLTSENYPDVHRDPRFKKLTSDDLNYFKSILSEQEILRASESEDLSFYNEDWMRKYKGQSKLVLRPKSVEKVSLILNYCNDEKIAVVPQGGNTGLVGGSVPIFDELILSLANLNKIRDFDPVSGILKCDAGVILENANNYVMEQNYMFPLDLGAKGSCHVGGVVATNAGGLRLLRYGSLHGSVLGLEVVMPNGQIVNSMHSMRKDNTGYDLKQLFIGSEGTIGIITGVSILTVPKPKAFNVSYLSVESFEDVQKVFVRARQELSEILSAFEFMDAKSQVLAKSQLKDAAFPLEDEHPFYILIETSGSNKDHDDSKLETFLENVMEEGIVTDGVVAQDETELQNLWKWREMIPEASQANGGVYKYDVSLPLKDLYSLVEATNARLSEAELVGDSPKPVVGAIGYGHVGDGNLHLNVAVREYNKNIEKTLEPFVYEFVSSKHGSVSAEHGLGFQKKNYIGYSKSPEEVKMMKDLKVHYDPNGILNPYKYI
Description: stopped-flow flavin reduction, hyperbolic fit on Dld2 (D-lactate dehydrogenase 2)

[2] = molecular target: T2, hETF (ETF from Homo sapiens) (Homo sapiens, UniProt P13804+P38117); test: UV-visible photoreduction of bound flavin; format: binding; conditions: co-purified cofactor; 50 mM HEPES pH 7, 1 mM DTT, anaerobic
T2 construct: gene ETFA
T2 sequence (P13804 20-333): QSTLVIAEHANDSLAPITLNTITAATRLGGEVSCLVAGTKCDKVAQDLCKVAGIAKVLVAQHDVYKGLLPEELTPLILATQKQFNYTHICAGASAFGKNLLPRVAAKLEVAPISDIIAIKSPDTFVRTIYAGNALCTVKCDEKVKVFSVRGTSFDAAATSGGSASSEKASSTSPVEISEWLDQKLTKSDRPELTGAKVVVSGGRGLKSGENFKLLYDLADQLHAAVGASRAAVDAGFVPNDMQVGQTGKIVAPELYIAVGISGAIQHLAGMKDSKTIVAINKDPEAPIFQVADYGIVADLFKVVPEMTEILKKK
T2 sequence (P38117 2-255): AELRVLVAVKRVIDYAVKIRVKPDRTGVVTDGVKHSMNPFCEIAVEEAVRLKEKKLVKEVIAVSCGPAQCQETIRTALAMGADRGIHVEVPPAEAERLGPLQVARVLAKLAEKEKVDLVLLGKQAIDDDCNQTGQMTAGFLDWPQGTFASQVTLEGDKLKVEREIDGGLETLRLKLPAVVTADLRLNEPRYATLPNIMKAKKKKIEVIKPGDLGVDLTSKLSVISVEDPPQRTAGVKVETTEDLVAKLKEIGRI

[3] = molecular target: T3, yETF (electron-transferring flavoprotein of Saccharomyces cerevisiae) (Saccharomyces cerevisiae, UniProt P42940+Q12480); test: UV-visible spectrum, native vs SDS-denatured; HPLC-DAD; format: binding; conditions: co-purified cofactor; 50 mM HEPES pH 7, 1 mM DTT, 25 °C
T3 construct: gene AIM45; heterodimer (alpha 38 kDa, beta 37 kDa), N-terminal hexahistidine tag on beta subunit (pETM11-His TEV), produced in E. coli Rosetta (DE3)-pLysS
T3 sequence (Q12480 15-344): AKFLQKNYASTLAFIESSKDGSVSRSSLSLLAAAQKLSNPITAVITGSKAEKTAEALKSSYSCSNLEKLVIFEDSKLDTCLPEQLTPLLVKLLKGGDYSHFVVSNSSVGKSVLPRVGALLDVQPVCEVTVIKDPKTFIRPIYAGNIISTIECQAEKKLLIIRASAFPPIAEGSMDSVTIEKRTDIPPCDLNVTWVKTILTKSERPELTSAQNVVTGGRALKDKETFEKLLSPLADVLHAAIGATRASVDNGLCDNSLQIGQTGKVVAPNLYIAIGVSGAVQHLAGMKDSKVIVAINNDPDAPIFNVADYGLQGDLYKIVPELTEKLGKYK
T3 sequence (P42940 1-261): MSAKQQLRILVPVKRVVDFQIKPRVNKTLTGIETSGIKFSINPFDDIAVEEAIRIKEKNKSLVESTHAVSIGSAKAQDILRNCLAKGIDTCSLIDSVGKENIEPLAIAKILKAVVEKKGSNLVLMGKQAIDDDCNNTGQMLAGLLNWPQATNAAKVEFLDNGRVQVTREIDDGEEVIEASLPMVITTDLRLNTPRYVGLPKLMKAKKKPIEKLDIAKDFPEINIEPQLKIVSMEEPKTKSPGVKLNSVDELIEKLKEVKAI

[4] = molecular target: T4, hETF (ETF from Homo sapiens) (Homo sapiens, UniProt P13804+P38117, P38117:Y16F); test: UV-visible photoreduction of bound flavin; format: binding; conditions: co-purified cofactor; 50 mM HEPES pH 7, 1 mM DTT, anaerobic
T4 construct: gene ETFA
T4 sequence (P13804 20-333): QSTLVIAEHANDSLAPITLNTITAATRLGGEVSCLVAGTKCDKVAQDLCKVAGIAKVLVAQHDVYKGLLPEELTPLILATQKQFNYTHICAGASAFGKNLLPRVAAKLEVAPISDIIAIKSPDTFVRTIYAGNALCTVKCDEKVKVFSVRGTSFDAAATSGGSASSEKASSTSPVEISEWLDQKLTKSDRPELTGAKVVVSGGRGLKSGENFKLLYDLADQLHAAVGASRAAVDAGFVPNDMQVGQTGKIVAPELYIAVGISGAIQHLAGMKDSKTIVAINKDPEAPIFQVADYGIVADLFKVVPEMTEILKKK
T4 sequence (P38117 2-255 Y16F): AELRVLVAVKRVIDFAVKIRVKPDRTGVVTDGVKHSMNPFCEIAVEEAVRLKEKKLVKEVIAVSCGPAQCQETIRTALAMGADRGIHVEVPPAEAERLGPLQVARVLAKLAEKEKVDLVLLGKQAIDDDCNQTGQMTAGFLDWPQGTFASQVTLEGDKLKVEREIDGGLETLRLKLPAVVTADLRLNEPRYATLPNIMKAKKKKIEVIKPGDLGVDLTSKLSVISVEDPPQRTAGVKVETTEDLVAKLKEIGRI

purified protein = substrate: O=C(O)CC[C@@H](O)C(=O)O; test: purified protein; format: biochemical, Saccharomyces cerevisiae; conditions: 125 µM 2,6-dichlorophenol indophenol as acceptor, aerobic, 50 mM HEPES, 150 mM NaCl pH 7, 25 °C, apparent

C[C@@H](O)C(=O)O [D‐lactate]
Kd [1]: 15 ± 1 mM

Cc1cc2nc3c(=O)[nH]c(=O)nc-3n(C[C@H](O)[C@H](O)[C@H](O)COP(=O)(O)OP(=O)(O)OC[C@H]3O[C@@H](n4cnc5c(N)ncnc54)[C@H](O)[C@@H]3O)c2cc1C [FAD]
UV-visible photoreduction of bound flavin [2]: hETF wild‐type (C), and hETF‐βTyr16Phe (D) in the course of the photoreduction: oxidized FAD | UV-visible spectrum, native vs SDS-denatured; HPLC-DAD [3]: absorption spectrum of denatured yETF further indicate the presence of an FAD chromophore | UV-visible photoreduction of bound flavin [4]: hETF‐βTyr16Phe (D) in the course of the photoreduction: oxidized FAD

B1: Dld2 (D-lactate dehydrogenase 2) (Saccharomyces cerevisiae S288C) (protein)
chain: MLRNILVRSTGSNFKFAGRYMKSSALLGYYRRVNYYSTKIQTRLTSENYPDVHRDPRFKKLTSDDLNYFKSILSEQEILRASESEDLSFYNEDWMRKYKGQSKLVLRPKSVEKVSLILNYCNDEKIAVVPQGGNTGLVGGSVPIFDELILSLANLNKIRDFDPVSGILKCDAGVILENANNYVMEQNYMFPLDLGAKGSCHVGGVVATNAGGLRLLRYGSLHGSVLGLEVVMPNGQIVNSMHSMRKDNTGYDLKQLFIGSEGTIGIITGVSILTVPKPKAFNVSYLSVESFEDVQKVFVRARQELSEILSAFEFMDAKSQVLAKSQLKDAAFPLEDEHPFYILIETSGSNKDHDDSKLETFLENVMEEGIVTDGVVAQDETELQNLWKWREMIPEASQANGGVYKYDVSLPLKDLYSLVEATNARLSEAELVGDSPKPVVGAIGYGHVGDGNLHLNVAVREYNKNIEKTLEPFVYEFVSSKHGSVSAEHGLGFQKKNYIGYSKSPEEVKMMKDLKVHYDPNGILNPYKYI
notes: produced in Komagataella phaffii KM71H, purified
Km (purified protein): 350 ± 50 µM | kcat (purified protein): 0.42 ± 0.02 s⁻¹ | kcat/Km (purified protein): 1200 ± 300 M⁻¹ s⁻¹
